Patent publication EP0587396A1, “Use of hypoxoside derivatives for the treatment of viral infections” (VIROSTAT (NA) NV, priority 1992, dated 1994)
Read-outs that look alike come from different tables or passages of the source.

Experiments:
Assay type in all cases: cell-based
[1] = test system: human immunodeficiency virus type 1 (HIV-1); experiment: Inhibition of HIV-1 proliferation in PHA-activated human PBL's (p24 core protein by Sandwich ELISA, HIV RNA by labelled DNA probe hybridization); conditions: for inhibition at 50 µg/mL: read-out: % inhibition:HIV-RNA, 50 μg/mℓ; for inhibition at 100 µg/mL: read-out: % inhibition:HIV-RNA, 100 μg/mℓ
Procedure: Compounds I - XXVIII were subjected to in vitro testing for inhibition of human immunodeficiency virus type 1 (HIV-1) proliferation as follows:
Human peripheral blood lymphocytes (PBL's) obtained by density gradient centrifugation of blood from healthy volunteers at a blood bank were pooled and used for the propagation of HIV-1 in vitro.
The PBL's were polyclonally activated with phytohaemagglutinin (PHA) and subjected to quality controls whereby their viability was tested with Trypan blue exclusion and the expression of activation antigens, CD4⁺ and CD25⁺ was measured by immunofluorescence. Prior to adding the test substance, the activated PBL's were exposed to a standardized titre of HIV-1 virus and after incubation for 60 minutes the cells were washed twice and plated into microtitre plates at a concentration of 2X10⁶ cells/well. The medium contained interleukin-2 and in control wells the virus produced between 50 and 100 ng/mℓ of p24 core protein on day 4. The test substance was added to these cultures either in water or dimethyl sulphoxide (DMSO) depending on solubility characteristics. The final DMSO concentration, when used, was always 1% v/v.
HIV replication was measured as the production of p24 core protein and the production of HIV RNA on days 2, 3 and 4, or on days 3, 4, 5 and 6. Core protein p24 was measured using 'Sandwich ELISA' technology using inter alia a monoclonal antibody against p24 core protein. The HIV RNA was measured using a specific labelled DNA probe against HIV RNA and the process of hybridization.
Results were expressed as percent inhibition of HIV-1 p24 core protein production or RNA production on days 3, 4 or 6.
In each test, cells were also exposed to HIV-1 and 3'-azido-3'-deoxythymidine (also known as Zidovudine or AZT) at 100, 10, 1 and 0.1 ng/mℓ. This was a positive control and compounds tested were compared to the inhibitory effect of 10 ng/mℓ AZT.
In all of the following Tables, percentage inhibition refers to inhibition of p24 core protein production and HIV RNA production relative to infected controls. Percentage AZT inhibition refers to inhibition caused by 10 ng/mℓ AZT at the end of the experiment, i.e. after 4 or 6 days.

[2] = Toxicity: lymphocyte proliferation assay with MTT in the HIV-1 infected PBL cultures; conditions: human, pbls, Table 8 continued (6 days incubation), read-out: Proliferation as a percentage of control value
Procedure: Possible toxic effects of the test substances were measured by viability testing using Trypan blue or a proliferation assay using3-(4,5-dimethylthiazol-2-yl)-2,5-diphenyl-2H-tetrazolium bromide (MTT) on day 4 or day 6 after initiation of the experiment (Borenfreund et al: Toxicol. In Vitro, 1988, 2, 1-6).
The toxicity of the drug was expressed as a percentage inhibition of lymphocyte proliferation as measured with MTT and compared with controls receiving the virus but no drug.

[3] = test system: respiratory syncytial virus (RSV); experiment: Inhibition of RSV syncytium formation in Hep-2 cells
Procedure: Compound XVIII was added to Hep-2 cells growing as slope cultures in plastics tubes to give final concentrations respectively of 50, 100 and 200 µg/mℓ. The cultures were then respectively inoculated with a high standard viral dose, one tenth (1/10) of said standard dose, and one hundredth (1/100) of said standard dose of respiratory syncytial virus (RSV). After four days of incubation at 33°C the cells were visually inspected using an inverted phase contrast microscope and scored for the extent of syncytium formation, i.e. single cells containing three or more nuclei, as follows: a = 0 - 25%, b = 25 - 50%, c = 50 - 75% and d = 75 - 100% of cells having three or more nuclei.

cytomegalo-virus (CMV) = experiment: Cytopathic effect of CMV in primary foetal human fibroblasts
Procedure: (§1) Compound XVII was added to primary foetal human fibroblasts in tissue culture, to yield final concentrations respectively of 50, 100 and 200 µg/mℓ. The cultures were then respectively inoculated with a high standard viral dose, with one tenth (1/10) of said standard dose and with one fiftieth (1/50) of said standard dose of cytomegalo-virus (CMV) and incubated for four days.
The cytopathic effect of CMV was determined by microscopic visual inspection of the cell cultures, in terms of the extent of gross swelling of the cells, where: a = 0 - 25%, b = 25 - 50%, c = 50 - 75% and d = 75 - 100% of the cells affected by gross swelling.

[4] = test system: primary foetal human fibroblasts; experiment: Signs of toxicity in the fibroblast cultures of the CMV test; conditions: 200 µg/mℓ
Procedure: as §1

[5] = Toxicity: lymphocyte proliferation assay with MTT in the HIV-1 infected PBL cultures; conditions: human, pbls, Table 8 (3 days incubation), read-out: Proliferation as a percentage of control value
[6] = Human immunodeficiency virus 1, 72 h, 3 days incubation
[7] = Human immunodeficiency virus 1, 144 h, 6 days incubation

O=S(=O)(O)Oc1ccc(C#CC/C=C/c2ccc(OS(=O)(=O)O)c(O)c2)cc1O [Compound XVII]
% inhibition:p24 core protein ([1]; 50 μg/mℓ, 3 days incubation): 47% | % inhibition:p24 core protein ([1]; 50 μg/mℓ, 6 days incubation): 87% | % inhibition:p24 core protein ([1]; 100 μg/mℓ, 3 days incubation): 88% | inhibition at 50 µg/mL [1, 6]: 68% | inhibition at 100 µg/mL [1, 6]: 93% | inhibition at 50 µg/mL [1, 7]: 91% | inhibition at 100 µg/mL [1, 7]: 100% | viability ([2]; 50 μg/mℓ): 96% | viability ([2]; 100 μg/mℓ): 94% | Extent of Syncytium Formation ([3]; 50 µg/mℓ, viral dose 1/10, 4 days at 33°C (virus control c)): c (c = 50 - 75%) | Extent of Syncytium Formation ([3]; 50 µg/mℓ, viral dose 1/100, 4 days at 33°C (virus control b)): a (a = 0 - 25%) | Extent of Syncytium Formation ([3]; 50 µg/mℓ, viral dose Full, 4 days at 33°C (virus control d)): d (d = 75 - 100% of cells having three or more nuclei) | Extent of Syncytium Formation ([3]; 100 µg/mℓ, viral dose 1/10, 4 days at 33°C (virus control c)): a (a = 0 - 25%) | Extent of Syncytium Formation ([3]; 100 µg/mℓ, viral dose 1/100, 4 days at 33°C (virus control b)): Nil | Extent of Syncytium Formation ([3]; 100 µg/mℓ, viral dose Full, 4 days at 33°C (virus control d)): c (c = 50 - 75%) | Extent of Syncytium Formation ([3]; 200 µg/mℓ, viral dose 1/10, 4 days at 33°C (virus control c)): Nil | Extent of Syncytium Formation ([3]; 200 µg/mℓ, viral dose 1/100, 4 days at 33°C (virus control b)): Nil | Extent of Syncytium Formation ([3]; 200 µg/mℓ, viral dose Full, 4 days at 33°C (virus control d)): Nil | Extent of the Cytopathic Effect of Cytomegalo-Virus (cytomegalo-virus (CMV); 50 µg/mℓ, viral dose 1/10, 4 days of incubation (virus control b+)): b (b = 25 - 50%) | Extent of the Cytopathic Effect of Cytomegalo-Virus (cytomegalo-virus (CMV); 50 µg/mℓ, viral dose 1/50, 4 days of incubation (virus control a)): a (a = 0 - 25%) | Extent of the Cytopathic Effect of Cytomegalo-Virus (cytomegalo-virus (CMV); 50 µg/mℓ, viral dose Full, 4 days of incubation (virus control c)): bc | Extent of the Cytopathic Effect of Cytomegalo-Virus (cytomegalo-virus (CMV); 100 µg/mℓ, viral dose 1/10, 4 days of incubation (virus control b+)): ab | Extent of the Cytopathic Effect of Cytomegalo-Virus (cytomegalo-virus (CMV); 100 µg/mℓ, viral dose 1/50, 4 days of incubation (virus control a)): a- | Extent of the Cytopathic Effect of Cytomegalo-Virus (cytomegalo-virus (CMV); 100 µg/mℓ, viral dose Full, 4 days of incubation (virus control c)): bc | Extent of the Cytopathic Effect of Cytomegalo-Virus (cytomegalo-virus (CMV); 200 µg/mℓ, viral dose 1/10, 4 days of incubation (virus control b+)): Nil | Extent of the Cytopathic Effect of Cytomegalo-Virus (cytomegalo-virus (CMV); 200 µg/mℓ, viral dose 1/50, 4 days of incubation (virus control a)): Nil | Extent of the Cytopathic Effect of Cytomegalo-Virus (cytomegalo-virus (CMV); 200 µg/mℓ, viral dose Full, 4 days of incubation (virus control c)): Nil | cultures showing signs of toxicity due to the compound [4]: 5 out of 8 | viability ([5]; 50 μg/mℓ): 84% | viability ([5]; 100 μg/mℓ): 80%
